In US20040167226A1, “Methods for the treatment of pain and traumatic injury using benzamides and compositions containing the same” (priority 2002, published 2004):

Columns and labels:
[1] = Absolute oral bioavailability and blood t1/2 of Compound A; type: in vivo, rats; conditions: rat, whole blood
Experimental: The absolute oral bioavailability of Compound A was determined by comparing the area-under-the-curve (“AUC”) following a 20 mg/kg IV dose of Compound A (2 ml/kg, 75% PEG solution) to a 20 mg/kg dose of Compound A dissolved in 1% methyl cellulose. Blood concentrations were determined at 0, 0.083, 0.15, 0.5, 1, 2, 4, 8, and 24 hours post-IV dose and 0, 0.5, 1, 2, 4 and 8 hours post-oral dose. Four animals were dosed orally and four animals were dosed intravenously.
In another experiment, six rats were orally dosed with 30 mg/kg of Compound A dissolved in 1% methyl cellulose. Blood samples were taken at 0.5, 1, 2, 5, 8, 12, 16, 20 and 24 hours. The apparent t1/2 for Compound A in the blood was 8 hours. This is a very long t1/2 for a drug in rats and is a good predictor of once-a-day dosing for Compound A in humans. Such a dosing regimen would be a significant therapeutic advantage in the clinic.
The blood samples were analyzed by HPLC. Detection was by UV at 262 nm. Responses were converted to concentrations by comparison to responses from calibration standards injected onto the column. The resulting concentrations were used to calculate the AUC.

[2] = Brain-blood distribution of Compound A in the mouse; type: in vivo; conditions: brain / whole blood, single po dose 30 mg/kg, n = 5, read-out: Brain/Blood Ratio (Mean ± SD)
Experimental: (§1) Blood-brain distribution of Compound A was assessed in the mouse, rat, and squirrel monkey by determining the concentrations of Compound A in blood and brain tissue at specific times post dose. Rats and mice received a single po dose of 30 mg/kg. The monkeys received a twice-daily 10 mg/kg po dose of Compound A for a total of 5 weeks prior to sacrifice. Brain to blood ratios for Compound A, as shown below in Table 4, show high penetration of the blood-brain barrier.

TNFα = test: Immunohistochemistry for inflammatory marker TNFα on contused spinal cord; type: in vivo; conditions: rats after contusion injury; 72 h post-injury, 1 mm caudal to epicenter
Experimental: Compound A was tested in both the rat dorsal hemisection (Guth, L. et al. (1980), J. Neurosurgery 52: 73-86) and contusion models (Scheff, S. W. (2003), J. Neurotrauma 20: 179-193) for evaluation of efficacy. These models are widely used in the field of spinal cord injury and replicate many of the pathological aspects found in humans who have sustained a spinal cord injury. Rats were subjected to an experimental spinal cord injury at T8, and were given Compound A shortly thereafter. Behavioral tests to assess the locomotion deficits were performed after the lesion. At the end of the experiment, animals were sacrificed and the spinal cord was collected for histopathological analysis. […] Histological assessment of the tissue at the site of injury was also made in both the drug treated and untreated group. In particular, subsequent to the behavioral measurement, spinal cord tissue from each animal was obtained and serial transverse tissue sections were stained with either anti-neurofilament antibody or antibodies specific for the inflammatory markers, tumor necrosis factor alpha (TNFα) and for the inducible form of nitric oxide synthetase (iNOS), followed by incubation with Alexa Fluor®-conjugated secondary antibodies.
Histological assessment of the tissue at the site of injury was also made in both the drug treated and untreated group. […]

[3] = Brain-blood distribution of Compound A in the squirrel monkey; type: in vivo; conditions: brain / whole blood, twice-daily 10 mg/kg po for 5 weeks, 24 h post-dose, n = 12, read-out: Brain/Blood Ratio (Mean ± SD)
Experimental: as §1

For `CC(=O)Nc1ccc(C(=O)NC(C)(C)C)cc1` [Compound A, N-tert-butyl-4-acetamidobenzamide], the bioavailability ([1]; AUC of 20 mg/kg oral (1% methyl cellulose) vs 20 mg/kg IV (75% PEG), read-out: absolute bioavailability through oral dosing) was 52%, the half-life ([1]; rats, 30 mg/kg oral in 1% methyl cellulose, read-out: apparent t1/2 in the blood (converted)) was 8 h and the Kp at 0.5 h ([2]; 0.5 h post-dose) was 0.79 ± 0.05. The Kp at 1 h ([2]; 1.0 h post-dose) was 0.8 ± 0.05, the Kp at 2 h ([2]; 2.0 h post-dose) was 0.76 ± 0.06 and the “inflammatory marker TNFα in the region of the corticospinal tract vs untreated control” value (TNFα) was “decreased”. For the same molecule, the Kp at 24 h [3] was 0.88 ± 0.09.
